The values that follow come from patent EP0743938B1, “SUBSTITUTED SPIRO COMPOUNDS FOR THE TREATMENT OF INFLAMMATION” (G.D. SEARLE & CO., priority 1994, dated 1995).

Test [1] deals with Male Sprague-Dawley rats. The test is described as follows: Rat Carrageenan Foot Pad Edema Test. The test is classed as in vivo. Particulars: po, 3 h, rats dosed orally, 10mg/kg body weight, one hour before carrageenan, foot volume three hours after carrageenan, read-out: RAT PAW EDEMA % Inhibition @ 10mg/kg body weight.
Description: Male Sprague-Dawley rats were selected in each group so that the average body weight was as close as possible. Rats were fasted with free access to water for over sixteen hours prior to the test. The rats were dosed orally (1 mL) with compounds suspended in vehicle containing 0.5% methylcellulose and .025% surfactant, or with vehicle alone. One hour later a subplantar injection of 0.1 mL of 1% solution of carrageenan/sterile 0.9% saline was administered and the volume of the injected foot was measured with a displacement plethysmometer connected to a pressure transducer with a digital indicator. Three hours after the injection of the carrageenan, the volume of the foot was again measured.
For test [2], the system named is Male Sprague-Dawley rats. The test is described as follows: Rat Carrageenan-induced Analgesia Test. Particulars: po, 3 h, read-out: ANALGESIA % Inhibition @ 10mg/kg body weight, rats dosed orally, hyperalgesic foot withdrawal, thermal stimulation three hours after carrageenan. The test is classed as in vivo.
Test [3] has as its target COX-1 (Homo sapiens, UniProt P23219). Particulars: read-out: COX I ID50 µM.

COX-1, sequence (P23219 24-599): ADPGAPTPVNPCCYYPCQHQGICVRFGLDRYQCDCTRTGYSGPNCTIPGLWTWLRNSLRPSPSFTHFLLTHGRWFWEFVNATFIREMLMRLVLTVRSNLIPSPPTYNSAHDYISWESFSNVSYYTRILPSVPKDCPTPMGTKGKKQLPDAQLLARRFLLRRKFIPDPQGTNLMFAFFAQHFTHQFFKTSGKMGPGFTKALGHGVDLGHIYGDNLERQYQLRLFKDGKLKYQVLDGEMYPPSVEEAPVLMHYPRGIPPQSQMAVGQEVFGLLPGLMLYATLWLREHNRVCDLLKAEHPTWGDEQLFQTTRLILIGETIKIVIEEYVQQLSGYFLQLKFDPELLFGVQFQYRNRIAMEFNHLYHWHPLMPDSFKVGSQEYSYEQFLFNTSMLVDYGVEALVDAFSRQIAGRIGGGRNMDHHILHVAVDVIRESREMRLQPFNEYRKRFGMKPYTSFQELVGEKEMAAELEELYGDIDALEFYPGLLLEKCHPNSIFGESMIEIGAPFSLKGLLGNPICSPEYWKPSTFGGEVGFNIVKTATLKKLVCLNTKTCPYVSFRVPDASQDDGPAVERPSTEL

`COc1c(Cl)cc(C2=C(c3ccc(S(C)(=O)=O)cc3)CC3(CC3)C2)cc1Cl` [Example 20, 5-(3,5-Dichloro-4-methoxyphenyl)-6-[4-(methylsulfonyl)phenyl]spiro[2.4]hept-5-ene]: the inhibition in vivo at 10 mg/kg was 24% in test [1] and 28% in test [2].
With `CS(=O)(=O)c1ccc(C2=C(c3ccc(Cl)c(Cl)c3)CC3(CC3)C2)cc1` [Example 27, 5-(3,4-Dichlorophenyl)-6-[4-(methylsulfonyl)phenyl]spiro[2.4]hept-5-ene], the inhibition in vivo at 10 mg/kg in test [1] came out at 15%.
For `COc1ccc(C2=C(c3ccc(S(N)(=O)=O)cc3)CC3(CC3)C2)cc1F` [Example 9, 4-[6-(3-Fluoro-4-methoxyphenyl)spiro[2.4]hept-5-en-5-yl]benzenesulfonamide], the inhibition in vivo at 10 mg/kg in test [1] was found to be 15%; in test [2] it was 17%.
`NS(=O)(=O)c1ccc(C2=C(c3ccc(F)cc3)CC3(CCC3)C2)cc1` [Example 4, 4-[7-(4-Fluorophenyl)spiro[3.4]oct-6-en-6-yl]benzenesulfonamide]: the inhibition in vivo at 10 mg/kg in test [1] was found to be 17%.
On to `COc1ccc(C2=C(c3ccc(S(C)(=O)=O)cc3)CC3(CC3)C2)cc1Cl` [Example 6, 5-(3-Chloro-4-methoxyphenyl)-6-[4-(methylsulfonyl)phenyl)spiro[2.4]hept-5-ene], for which the inhibition in vivo at 10 mg/kg in test [1] was found to be 21%; in test [2], 7%.
As to `NS(=O)(=O)c1ccc(C2=C(c3ccc(C(F)(F)F)cc3)CC3(CC3)C2)cc1` [Example 25, 4-[6-(4-Trifluoromethylphenyl)spiro[2.4]hept-5-en-5-yl]benzenesulfonamide], the inhibition in vivo at 10 mg/kg in test [1] turned out to be 34%; in test [2], 22%.
As to `NS(=O)(=O)c1ccc(C2=C(c3ccc(Cl)c(Cl)c3)CC3(CC3)C2)cc1` [Example 29, 4-[6-(3,4-Dichlorophenyl)spiro[2.4]hept-5-en-5-yl]benzenesulfonamide], the inhibition in vivo at 10 mg/kg in test [1] came out at 24%; in test [2], 29%.
With `COc1ccc(C2=C(c3ccc(S(N)(=O)=O)cc3)CC3(CC3)C2)cc1Cl` [Example 7, 4-[6-(3-Chloro-4-methoxyphenyl)spiro[2.4]hept-5-en-5-yl]benzenesulfonamide], the inhibition in vivo at 10 mg/kg in test [1] was found to be 20%; in test [2] it was 18%.
On to `COc1ccc(C2=C(c3ccc(S(C)(=O)=O)cc3)CC3(CC3)C2)cc1F` [Example 8, 5-(3-Fluoro-4-methoxyphenyl)-6-[4-(methylsulfonyl)phenyl]spiro[2.4]hept-5-ene], for which the inhibition in vivo at 10 mg/kg in test [1] was determined as 15%; in test [2], 8%.
In the case of `CS(=O)(=O)c1ccc(C2=C(c3ccc(OC(F)(F)F)cc3)CC3(CC3)C2)cc1` [Example 14, 6-[4-(Methylsulfonyl)phenyl]-5-(4-trifluoromethoxyphenyl)spiro[2.4]hept-5-ene], the inhibition in vivo at 10 mg/kg in test [1] was found to be 18%.
Consider `CS(=O)(=O)c1ccc(C2=C(c3ccc(C(F)(F)F)cc3)CC3(CC3)C2)cc1` [Example 19, 6-[4-(Methylsulfonyl)phenyl)-5-(4-trifluoromethylphenyl)spiro[2.4]hept-5-ene], for which the values for the inhibition in vivo at 10 mg/kg in test [1] and in test [2] were 11% and 9%, respectively.
As to `CS(=O)(=O)c1ccc(C2=C(c3ccc(F)cc3)CC3(CCC3)C2)cc1` [Example 3, 6-(4-Fluorophenyl)-7-[4-(methylsulfonyl)phenyl]spiro[3.4]oct-6-ene], the inhibition in vivo at 10 mg/kg in test [1] is 24%.
Still for that read-out and setting: to `COc1ccc(C2=C(c3ccc(S(C)(=O)=O)cc3)CC3(CC3)C2)cc1Br` [Example 16, 5-(3-Bromo-4-methoxyphenyl)-6-[4-(methylsulfonyl)phenyl]spiro[2.4]hept-5-ene] belongs 6%.
Take `CS(=O)(=O)c1ccc(C2=C(c3ccc(F)c(Cl)c3)CC3(CC3)C2)cc1` [Example 22, 5-(3-Chloro-4-fluorophenyl)-6-[4-(methylsulfonyl)phenyl]spiro[2.4]hept-5-ene]: the inhibition in vivo at 10 mg/kg in test [1] was 21%; in test [2], 10%. The IC50 in test [3] amounted to 6 µM.
With `CS(=O)(=O)c1ccc(C2=C(c3ccc(F)cc3)CC3(CC3)C2)cc1` [Example 1, 5-(4-Fluorophenyl)-6-[4-(methylsulfonyl)phenyl]spiro[2.4]hept-5-ene], the inhibition in vivo at 10 mg/kg was determined as 32% in test [1] and 15% in test [2].
On to `NS(=O)(=O)c1ccc(C2=C(c3ccc(F)cc3)CC3(CC3)C2)cc1` [Example 2, 4-[6-(4-Fluorophenyl)spiro[2.4]hept-5-en-5-yl]benzenesulfonamide], for which the inhibition in vivo at 10 mg/kg in test [1] amounted to 57%; in test [2], 34%.
